Consider 11 molecules from patent US20210246128A1, “BICYCLE TOPOISOMERASE I INHIBITING COMPOUNDS, PROCESS FOR PREPARATION AND USE THEREOF” (Council of Scientific & Industrial Research, priority 2018, published 2021).

In series [1] the target is T1, recombinant human TopI (HTopI) (Homo sapiens, UniProt P11387).
T1 sequence (P11387 1-765): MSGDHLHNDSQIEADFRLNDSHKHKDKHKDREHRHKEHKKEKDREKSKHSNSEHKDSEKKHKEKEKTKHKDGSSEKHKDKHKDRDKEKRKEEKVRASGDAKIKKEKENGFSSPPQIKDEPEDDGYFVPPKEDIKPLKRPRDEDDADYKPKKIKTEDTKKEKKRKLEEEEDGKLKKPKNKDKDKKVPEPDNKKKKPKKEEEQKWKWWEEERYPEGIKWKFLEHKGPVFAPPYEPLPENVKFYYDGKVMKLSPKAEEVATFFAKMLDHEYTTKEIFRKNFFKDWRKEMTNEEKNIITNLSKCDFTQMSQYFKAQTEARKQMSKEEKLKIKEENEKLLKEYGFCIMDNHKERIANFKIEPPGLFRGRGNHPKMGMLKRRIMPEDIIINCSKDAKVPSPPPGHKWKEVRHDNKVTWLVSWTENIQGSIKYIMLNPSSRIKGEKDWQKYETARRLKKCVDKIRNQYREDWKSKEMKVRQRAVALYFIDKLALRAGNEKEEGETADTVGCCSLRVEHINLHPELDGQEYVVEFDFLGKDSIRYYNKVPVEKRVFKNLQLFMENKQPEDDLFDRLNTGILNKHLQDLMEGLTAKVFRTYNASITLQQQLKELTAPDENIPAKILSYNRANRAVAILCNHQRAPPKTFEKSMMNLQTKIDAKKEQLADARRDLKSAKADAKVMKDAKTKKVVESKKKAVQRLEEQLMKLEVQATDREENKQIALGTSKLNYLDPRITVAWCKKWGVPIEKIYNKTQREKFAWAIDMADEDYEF
Briefly: Gel based plasmid DNA relaxation assay with recombinant TopI (in vitro). The conditions noted are these: recombinant human TopI; for IC50: plasmid DNA relaxation. Format: biochemical. How it is done:
(§1) Human ToPI Inhibition in Plasmid DNA Relaxation Assays with Recombinant TopI (In Vitro) or MCF7 Cell Lysates (Ex Vivo)
(§2) Relaxation of supercoiled pBSSK(^+) DNA with recombinant human TopI (HTopI) at a molar ratio of 3:1 at 37° C. for 30 minutes was performed

Series [2] has as its target T2, endogenous TopI from the whole cell extracts of human breast adenocarcinoma (MCF7) cell (Homo sapiens, UniProt P11387).
T2 construct: TopI enzyme in the extract is conserved in its native structure among a plethora of other cellular proteins; endogenous in cells; host or cells: MCF7 whole cell extract
T2 sequence (P11387 1-765): T1 sequence (P11387 1-765)
Description: Plasmid DNA relaxation assay with MCF7 cell lysates (ex vivo). The conditions noted are these: MCF7 cell lysates as source of TopI. The class given is biochemical. As to the method:
as §1, §2
cellular extracts were utilized as a source of TopI (ex vivo) in plasmid DNA relaxation assays. TopI enzyme in the extract is conserved in its native structure among a plethora of other cellular proteins.

The nature of the next series: Plasma stability assay. The conditions noted are these: pH 7.4, 37° C., 1 μM. Format: in vitro ADME. How it is done: The stock solution of 10 mM of test compound in DMSO was prepared and stored at 4° C. 25 μM stock of test compound was prepared in acetonitrile: water by diluting from 10 mM stock (i.e. 2.5 μL of 10 mM stock solution was added to 997.5 μL of acetonitrile: water (50:50). The frozen plasma was thawed at room temperature and centrifuged at 1400×RCF (relative centrifugal force) 4° C., for 15 minutes. Approximately 90% of the clear supernatant fraction was transferred to a separate tube and was used for the assay.
For 0 min samples, plasma was heat inactivated at 56° C. for 45 min. To 72 μL of heat inactivated plasma, 3 μL of 25 μM test compound was added. A 25 μL aliquot of the mixture was taken and crashed with 200 μL of acetonitrile containing internal standard and further processed along with other time points. For other time point samples, final working stock of 1 μM was prepared by diluting in plasma (i.e. 8 μL of 25 μM acetonitrile:water stock was added to 192 μL of plasma). 200 μL of plasma containing the test compound was incubated for 2 hrs at 37° C. in shaker water bath with gentle shaking. 25 μL aliquot of sample at 0, 15, 30, 60 and 120 min was precipitated immediately with 200 μL of acetonitrile containing internal standard and centrifuged at 4000×RCF, 4° C. for 20 minutes. 150 μL of supernatant was diluted with 150 μL of water and analyzed on LC-MS/MS.

Series [3] in a line: Solubility assay (pH 7.4 pION buffer, UV). The class given is physicochemical. The conditions noted are these: pH 7.4 pION buffer, aqueous buffer, kinetic from dmso stock; pH 7.4 buffer, 18 hours incubation; read-out: Avg. Solubility (μg/mL) at pH 7.4. How it is done:
5 μL of 20 mM DMSO stock from the stock plate was added to the reaction deep well plate containing 495 μL of pH 7.4 pION buffer (including DMSO control) respectively and the samples were mixed and incubated for 18 hours. The plate was sealed well during the incubation process. The DMSO content in the sample was <1.0%. The concentration in deep well plates was 200 μM. 4 μL of 20 mM stock (including DMSO control) was added to 996 μL of acetonitrile to prepare the working stock plate. 75 μL of working stock was added to 75 μL of blank buffer and read on spectrophotometer as reference plate at 240 nm. At the end of the incubation period, 100 μL of sample from storage plate was vacuum filtered using a filter plate. This step wets the filters and the filtrate was discarded. Another 200 μL of the sample from deep well plate was vacuum filtered in to a new filter collection plate. 75 μL of the filtrate from the filter collection plate was transferred to a UV sample plate. 75 μL of acetonitrile was added to this UV plate. The solution was mixed and the spectrum was read using the UV spectrophotometer at 240 nm. Plates were read on spectramax using SoftMax Pro software version 5.3.

The nature of series [4]: Caco-2 permeability (21 day culture of Caco-2 cell monolayer). The class given is in vitro ADME. The note with it: human; for efflux ratio at 120 min, 10 μM: Caco-2, pH 7.4; for recovery at 120 min, 10 μM: Caco-2, pH 7.4, Caco-2; for Papp A→B at 120 min, 10 μM / Papp B→A at 120 min, 10 μM: pH 7.4, Caco-2, 10 μM; for Papp A→B at 120 min, 10 μM: read-out: Papp Apical to Basal; for Papp B→A at 120 min, 10 μM: read-out: Papp Basal to Apical. As to the method:
5 mL of 100 mM sodium pyruvate, 5 mL of 10× non-essential amino acids, 5 mL of penstrep were added to 100 mL of heat inactivated foetal bovine serum to 385 mL of DMEM aseptically and mixed thoroughly. One vial of Hank's balanced salt (Sigma-H1387) was dissolved in 900 mL of milli Q water; adjusted the pH to 7.4 and made up the volume to 1000 mL with the same. The solution was filter sterilized and stored at 4° C. Stock solution of test compound (10 mM) was prepared in DMSO. 10 mM stock was diluted with HBSS Buffer to a final concentration of 10 μM.
250 μL of DMEM was added to the basal compartment of 96 well multi-screen Caco-2 plate and seeded 12000 cells/well (0.16×10^6 cells/ml) in all the apical wells required and one well with only media as blank without cells, placed the Caco-2 plate in CO2 incubator at 37° C. for proliferation of cells.
On the day of assay, medium was removed and washed twice with HBSS Buffer and incubated with HBSS buffer for 30 min in an incubator and wells with TEER values >230 ohm·cm^2 were selected for the incubation. 75 μL of test compound was added to apical wells and 250 μL of HBSS buffer with 2% BSA was added to basal wells. 25 μL of basal samples was collected at 120 min and processed as stated below.
250 μL of test compound was added to basal wells and 75 μL of HBSS buffer with 2% BSA was added to apical wells. 25 μL of apical samples was collected at 120 min and processed as stated below.
Single point calibration curve in HBSS buffer with 2% BSA was used. Donor samples were diluted 1:1 with HBSS containing 2% BSA and receiver samples were diluted with 1.1 HBSS buffer and precipitated with 200 μL of acetonitrile containing internal standard and vortexed for 5 min @ 1000 rpm, centrifuged at 4000 rpm for 10 min. Finally 100 μL of supernatant was diluted with 200 μL of water and submitted for LC-MS/MS analysis.

Series [5] in a line: Lipophilicity assay (octanol/buffer Log D). The note with it: n-octanol/sodium phosphate buffer, pH 7.4.
Description: 1.56 g NaH2PO4.2H2O was dissolved in 0.5 L water in a 1 L beaker. After adjusting pH to 7.4 using NaOH solution, the volume was made up to 1 L. Equal volumes of sodium phosphate buffer (10 mM, pH 7.4) and n-octanol were added to a separation funnel and mixed thoroughly by shaking and inverting the funnel several times. The two layers were allowed to separate for 2 days and then dispensed in two separate glass bottles. 10 mM stock solution was prepared in 100% DMSO and stored at 4° C. 500 μL of organic phase (1-octanol) was added to each well of a 2 mL deep well plate, followed by 500 μL of buffer and 15 μL of test substance was added. The plate was vortexed for 1 hr on a plate shaker at 1200 rpm. After incubation, the samples were allowed to equilibrate for 20 min and then centrifuged at 4000 rpm for 30 min for complete phase separation and analysed by LC-UV.
Log D=Log(area of octanol/area of buffer)
Mean, SD and % CV for each set of triplicates were calculated
A further series deals with calf thymus (CT) DNA. Description: Ethidium bromide (EtBr) displacement assay. The note with it: 1 μM EtBr, 5 nM CT DNA, 0-200 μM compound. The class given is binding.

In brackets after ≈: the same amount, converted by molar mass. Where two headings read alike, the source gives them in different places.

The molecule `COc1cccc(-c2ccc3ncc(-c4nnco4)c(NCCCn4ccnc4)c3c2)c1` [Compound 82, N-(3-(1H-Imidazol-1-yl)propyl)-6-(3-methoxyphenyl)-3-(1,3,4-oxadiazol-2-yl)quinolin-4-amine] displayed a melting point of 96 °C. The IC50 in series [1] is 1.05 µM. This molecule also had an IC50 in series [2] of 4.11 µM.
Regarding `COc1ccc(-c2ccc3ncc(-c4nnco4)c(NCCN4CCOCC4)c3c2)cc1OC` [Compound 8, 6-(3,4-dimethoxyphenyl)-N-(2-morpholinoethyl)-3-(1,3,4-oxadiazol-2-yl)quinolin-4-amine], the melting point is 116 °C.
Regarding `COc1ccc(-c2ccc3ncc(-c4nnco4)c(NCCCn4ccnc4)c3c2)cn1` [Compound 33, N-(3-(1H-imidazol-1-yl)propyl)-6-(6-methoxypyridin-3-yl)-3-(1,3,4-oxadiazol-2-yl)quinolin-4-amine], in the series “Plasma stability assay”, the “Mean % remaining at 2 hrs in human Plasma” value was found to be 102.28%. Further, the solubility at 18 h in series [3] was 27.9 µg/mL (≈ 65.4 µM). Further, the efflux ratio at 120 min, 10 μM in series [4] was found to be 4.01. Besides, the results for the recovery at 120 min, 10 μM in series [4] (read-out: A to B % Recovery) and in series [4] (read-out: B to A % Recovery) were 83.9% and 92%, respectively. In series [4], the Papp A→B at 120 min, 10 μM is 78.9 nm/s. The Papp B→A at 120 min, 10 μM in series [4] was found to be 315 nm/s. The IC50 was 0.017 µM in series [1] and 0.625 µM in series [2]. In series [5], the logD stood at 2.79.
In turn, `Cc1ccc(-c2ccc3ncc(-c4nnco4)c(NCCN4CCOCC4)c3c2)cc1[N+](=O)[O-]` [Compound 10, 6-(4-methyl-3-nitrophenyl)-N-(2-morpholinoethyl)-3-(1,3,4-oxadiazol-2-yl)quinolin-4-amine] registered a melting point of 222 °C.
On to `CCCSc1ccc2nc(NC(=O)OC)[nH]c2c1` [Albendazole, reference compound], for which, in series [3], the solubility at 18 h worked out at 3.31 µg/mL (≈ 12.5 µM).
The molecule `COc1ccc(-c2ccc3ncc(-c4nnco4)c(NCCN4CCOCC4)c3c2)cc1` [Compound 9, 6-(4-methoxyphenyl)-N-(2-morpholinoethyl)-3-(1,3,4-oxadiazol-2-yl)quinolin-4-amine] registered a melting point of 156 °C. Besides, the inhibition at 10 µM in series [1] (at 10 μM, read-out: In vitro inhibition at 10 μM) came out at 45%.
Take `c1cncc(-c2ccc3ncc(-c4nnco4)c(NCCCn4ccnc4)c3c2)c1` [Compound 30, N-(3-(1H-imidazol-1-yl)propyl)-3-(1,3,4-oxadiazol-2-yl)-6-(pyridin-3-yl)quinolin-4-amine]: the “Mean % remaining at 2 hrs in human Plasma” value in “Plasma stability assay” worked out at 14.62%. The solubility at 18 h in series [3] came to 44 µg/mL (≈ 111 µM). Besides, in series [4], the efflux ratio at 120 min, 10 μM turned out to be 40; the Papp A→B at 120 min, 10 μM was 9.5 nm/s; the Papp B→A at 120 min, 10 μM came to 383 nm/s. The recovery at 120 min, 10 μM in series [4] (read-out: A to B % Recovery) was determined as 84.8%. Further, the recovery at 120 min, 10 μM in series [4] (read-out: B to A % Recovery) was 74.2%. In addition, in series [1], the IC50 turned out to be 0.397 µM. Inhibition in series [2] was half-maximal at 1.25 µM (IC50). In addition, the logD in series [5] is 3.54.
Regarding `COc1cc([C@@H]2c3cc4c(cc3[C@@H](O[C@@H]3O[C@@H]5CO[C@@H](C)O[C@H]5[C@H](O)[C@H]3O)[C@H]3COC(=O)[C@H]23)OCO4)cc(OC)c1O` [etoposide], in the series on calf thymus (CT) DNA, the “displacement of bound EtBr (DNA intercalation)” value was “unable to displace EtBr”.
On to `N#Cc1ccc(-c2ccc3ncc(-c4nnco4)c(NCCN4CCOCC4)c3c2)cc1` [Compound 11, 4-(4-(2-morpholinoethylamino)-3-(1,3,4-oxadiazol-2-yl)quinolin-6-yl)benzonitrile], for which the melting point was found to be 190 °C.
As to `CC(C(=O)O)c1ccc(-c2ccccc2)c(F)c1` (centres unmarked) [Flurbiprofen, reference compound], the solubility at 18 h in series [3] was found to be 54 µg/mL (≈ 221 µM).
In the case of `COc1cc(NS(C)(=O)=O)ccc1Nc1c2ccccc2nc2ccccc12` [m-AMSA], the “displacement of bound EtBr (DNA intercalation)” value with calf thymus (CT) DNA was “capability to dislodge the bound fluorophore (EtBr) at 50 μM concentration”.
